Experiments:
[1] = test system: platelet aggregation induced by ADP; experiment: Antiplatelet aggregation effect, ADP-induced, turbidimetry in platelet-rich plasma; format: cell-based; conditions: Homo sapiens, 2 min; platelet rich plasma of healthy subjects; 25 μL of 50 nM compound solution in 225 μL plasma, 37° C. 2 min; ADP final 2 μM; read-out: The rate of platelet aggregation inhibition
Procedure: • 1) Experimental material: ADP, epinephrine, collagen (bilBio) • 2) Experimental method: blood samples provided by healthy subjects were mixed blood with 3.8% citric acid solution and centrifuged at 160 r/min to obtain platelet-rich plasma. To calibrate the data, the obtained platelet-rich plasma was further centrifuged at 2000 r/min to obtain platelet-poor plasma, stored in a −20° C. refrigerator. Testing was performed using Born I's turbiometry. 225 μL of platelet rich plasma was added to the reaction cup, the embodiment compound was configured as 50 nM solution (25 m M Tris-acetate and 120 m M N a Cl), 25 μL of embodiment compound solution was added and after incubation at 37° C. for 2 min, 5 μL of ADP (final concentration 2 μM) was added for platelet aggregation induction. To assess the degree of platelet aggregation, the maximum absorbance value took the data after ADP, thus calculating the inhibition rate of ADP-induced platelet aggregation by each embodiment compound. According to the data in Table 6 below, the compounds of the present application embodiment all have a good effect of inhibiting the platelet aggregation induced by ADP.

[2] = test system: postmenopausal osteoporosis mouse model; experiment: Therapeutic effect of osteoporosis, postmenopausal osteoporosis mouse model (ovariectomy); format: in vivo; parameters: Tb · N: unit not given here
Source text: • 1) Test materials; 1. Animal clean grade C57BL/6 strain, 8-10 weeks old not pregnant females were purchased from Yangzhou University. 2. Main reagents and instruments, Bujiale (estradiol valerate tablets, Bayer); mouse osteocalcin (osteocalcin, OC) enzyme-linked immunotest kit, alkaline phosphatase (alkaline phosphatase, ALP) test kit, tartrate acid phosphatase (StrACP) test kit (all the above kits were purchased in Nanjing). Dual-energy X-ray bone densitometer (HOLOGIC); ECLIPSE 50i microscope (Nikon); MUTISKANMK3 microplate reader (Thermo); tissue slicing equipment (including KD-TS3D1 biological tissue automatic dehydrmachine (Zhejiang Cody), TB-718 biological tissue automatic embedding machine (Hubei), R138 rotary slicer (Hubei), TK-212 automatic constant temperature drift instrument (Hubei), TK-213 automatic constant temperature dryer (Hubei), etc.). • 2) Test method: A animals were grouped, and the random method divided the female mice into 4 groups, namely, sham operation group, model group, positive drug group, and test drug group. B Preparation of postmenopausal osteoporosis mouse model, chloral hydrate anesthesia and removed the ovaries in the lying position. In the sham group, only the same volume of fat tissue near the ovaries was removed. Vaginal smear was performed on days 4-8 after ovariectomy to determine if the ovariectomy was complete. Method of c, on the third day after the operation, positive control drug (0.1 mL/10 g gavage), equal volume of 0.9%sodium chloride solution in sham group and model group, continuous gavage for 28 d. Test ResResults test: Blood and bone tissue samples after day 28. The following indicators were tested: (1) determination of bone density, lumbar L4-6 measurement of bone density by double energy X-ray bone density instrument. (2) Observation of bone tissue and morphology, the bone tissue and morphology changes were observed by tibial HE staining, mainly testing the trabecular volume ratio (bone volume/tissue volume, BV/TV) and the number of trabecular bone (trabecular bone number, Tb. N) and trabecular separation (trabecular separation, Tb. And sp) were the quantitative evaluation index. (3) For the determination of biological indicators ALP, StrACP, OC, and E 2 in mouse serum, blood was collected by enucleation method, and by kit and enzyme-linked adsorption assay.

[3] = test system: rats with hypoxic pulmonary hypertension; experiment: In vivo test in rats with hypoxic pulmonary hypertension; parameters: species or system rat; conditions: SD male rats, low pressure low oxygen chamber, 5 mg/kg, after four weeks, vs model group
Procedure: • 1) Experimental instruments and materials, HX-200 animal ventilator, and SD male rats used in the experiment were all purchased from Yangzhou University. All control groups were reared in a normal environment, and the administration intervention and model groups were reared in the low pressure low oxygen chamber (air pressure 50 kPa, oxygen concentration 10%). • 2) Compound 15 was dissolved using DMSO/solutol/water (10/10/80). In the intervention group, the dose was 5 mg/kg, all rats were weighed weekly, survival was recorded, and pulmonary artery pressure was measured after four weeks. Rats (3 ml/kg) were anesthetized with chloral hydrate (100 g/L), fixed in the supine position, tracheotomy, and breathing assisted with a small animal ventilator (frequency 60 beats/min, 5 ml, breath ratio 4:5). Free the left third rib, a catheter connecting one end to the tension transducer was sent to the pulmonary artery, and the mean pulmonary artery pressure (mP AP) was recorded through the BL-420E Biofunction experimental system. […] The results of FIG. 1 show the effect of beraprost derivative compound 15.

[4] = In vitro NO release test (Griess method); conditions: 200 μM test compound solution mixed with 200 μM L-cysteine solution, 37° C.
Procedure: NO was transiently oxidized in aqueous solution using released NO by Griess' method, NO^2− And Griess reagent form a complex, which has strong UV uptake at 540 nm to determine the amount of NO released by the compound. • 1) Preparation of solution: blank solution: 10 mL DMSO and 190 m L PBS mixed; G riess Reagent: sulfonamide (4.0 g), N-(1-naphthalyl) ethylenediamine dihydrochloride (0.2 g) and 10 mL 85% H3PO4 dissolved in 90 mL of distilled water, Blow until clear solution; L-cysteine solution: after accurate weighing of L-cysteine, Add a certain amount of PBS, Prepare a weighed 200 μM solution; Test compound solution: the exact weighing of the test compound, Dissolved in D MSO and diluted to a concentration of 1 mM, Then, when diluted in PBS, To a concentration of 200 μM.
2) Formulation of standard curve equation: prepare sodium nitrite solution concentration: 0 ,0 , 1, 3, 6, 12.5, 25, 50, 100 μmol/L, 150 μL of each concentration, add 50 μL of Griess reagent mix, incubated in 37° C. constant temperature shaker for 30 min, the plate reader measured each tube absorbance at 540 nm, after subtracting the blank solution reading, the standard curve equation . . . 78.56.13.25 • 3) Test compound test: mix 2 mL of the test compound solution and L-cysteine solution, incubate in 37° C. constant temperature shakers for 120 min, take 150 μL of each mixture, add 50 μL of Griess reagent, then incubate in 37° C. constant temperature shaker for 30 min, the microplate measured each tube absorbance at 540 nm, then subtract the blank solution reading and substitute the value into the standard curve equation to obtain NO release.

[5] = test system: renal tubular epithelial cells in acute renal failure; experiment: Renal tubular protective effect of acute renal failure (co-culture with isolated cells); format: cell-based, rat; conditions: renal tubular epithelial cells from acute renal failure rats, 200 μg/mL
Source text: • 1) Test materials, glycerol (MacLean Company); CCK-8 kit, Annexin V-PE cell apoptosis detection kit, superoxide dismutase activity detection kit, malondialdehyde detection kit (Biyun Biotech); first anti-cysteine aspartate protease, caspase 3 and 9, B lymphocytoma-2 gene, Bcl-2-associated X protein (BAX, anti-rabbit), TGF-β 1, smad 3 (abcam, USA). Protein gel imager, microplate reader, and flow cytometer (Beckman Coulter, Type CytoFLEX). Clean-grade SD rats were purchased from Yangzhou University. • 2) Test method, the model of acute renal failure of rat hind limb injection was used. After 24 h, the level of BUN and Cr increased in rat serum, vascular necrosis of renal interstitium, and inflammatory cell infiltration were regarded as successful model establishment. Some renal tissues from model animals were taken for in vitro culture, renal tubular epithelial cells were isolated and identified, and test drug co-culture (0-24 hours) was added. Changes of various biochemical indicators and apoptosis were determined. […] Conclusion Test compounds can promote tubular epithelial cells proliferation, inhibit apoptosis, inhibit oxidative stress, and slow the damage of renal tubular epithelial cells by inhibiting the expression of proapoptotic proteins.

[6] = tibial HE staining, ovariectomised C57BL/6 mice, gavage 28 d

With `CC#CCC(C)[C@@H](O)/C=C/[C@H]1[C@@H]2c3cccc(CCCC(=O)OCC4CCCC(CO[N+](=O)[O-])C4)c3O[C@@H]2C[C@@H]1O` (stereo partly shown) [Compound 15] the inhibition at 0.005 µM [1] was 92%, the ALP ([2]; mouse serum, day 28) was 19 ± 2.2 King-Armstrong unit/100 mL and the E2 ([2]; mouse serum, day 28) was 35 ± 4 ng/mL. For the same molecule, the OC ([2]; mouse serum, day 28) was 1.7 ± 0.2 ng/mL, the “Str ACP” value ([2]; mouse serum, day 28) was 41 ± 3.6 U/L and the BV/VT [2, 6] was 0.29 ± 0.05. The “Tb · N” value [2, 6] was 7.5 ± 0.6, the “Tb · sp” value [2, 6] was 152 ± 15 μm and the “mean pulmonary artery pressure (mPAP)” value [3] was “lower compared with the model group”. For the same molecule, the “120 min NO^2−” value [4] was 12.7 µM, the “B AX protein level” value [5] was 0.32 ± 0.12 and the “B CL2 protein level” value [5] was 0.56 ± 0.11. The MDA [5] was 489 ± 38 Nnol/g protein, the “S mad3 protein level” value [5] was 0.19 ± 0.07 and the SOD [5] was 1016 ± 117 U/g egg white. For the same molecule, the “T GF-β1 protein level” value [5] was 0.24 ± 0.05, the “The rate of apoptosis” value [5] was 9 ± 0.7% and the caspase3 protein level [5] was 0.28 ± 0.06. The caspase9 protein level [5] was 0.48 ± 0.1.
